Source: ChEMBL document CHEMBL1140814 (Bioorg Med Chem Lett, 2008)

Assays:
[1] = molecular target: Muscarinic acetylcholine receptor M3 (Cavia porcellus) (UniProt Q8VH26); test: Intrinsic activity at muscarinic M3 receptor in guinea-pig ileum assessed as ratio of agonist activity to activity of arecaidine propargyl ester; assay type: functional, tissue-based
[2] = molecular target: T1, Muscarinic acetylcholine receptor M5 (Homo sapiens, UniProt P08912); test: Displacement of [3H]NMS from human cloned muscarinic M5 receptor expressed in CHO cells; assay type: cell-based
T1 sequence (P08912 whole entry): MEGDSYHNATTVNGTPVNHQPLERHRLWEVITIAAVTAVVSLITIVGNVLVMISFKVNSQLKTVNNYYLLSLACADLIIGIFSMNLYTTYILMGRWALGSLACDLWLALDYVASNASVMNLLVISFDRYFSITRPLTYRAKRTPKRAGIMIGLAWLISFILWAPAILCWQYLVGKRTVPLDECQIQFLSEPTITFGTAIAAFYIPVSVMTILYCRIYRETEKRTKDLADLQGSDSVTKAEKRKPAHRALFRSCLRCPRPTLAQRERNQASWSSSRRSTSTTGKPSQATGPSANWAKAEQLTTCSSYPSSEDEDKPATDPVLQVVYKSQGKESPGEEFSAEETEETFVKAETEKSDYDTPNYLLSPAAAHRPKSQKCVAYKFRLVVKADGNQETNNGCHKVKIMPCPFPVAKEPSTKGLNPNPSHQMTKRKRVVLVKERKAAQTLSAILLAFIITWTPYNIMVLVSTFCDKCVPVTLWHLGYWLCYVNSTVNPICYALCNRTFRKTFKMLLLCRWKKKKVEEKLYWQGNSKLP

[3] = Intrinsic activity at muscarinic M4 receptor in guinea-pig lung strips assessed as ratio of agonist activity to activity of arecaidine propargyl ester; assay type: functional, Cavia porcellus
[4] = Intrinsic activity at muscarinic M2 receptor in guinea-pig stimulated left atria assessed as ratio of agonist activity to activity of arecaidine propargyl ester; assay type: functional, Cavia porcellus
[5] = molecular target: T2, Muscarinic acetylcholine receptor M4 (Homo sapiens, UniProt P08173); test: Displacement of [3H]NMS from human cloned muscarinic M4 receptor expressed in CHO cells; assay type: cell-based
T2 sequence (P08173 whole entry): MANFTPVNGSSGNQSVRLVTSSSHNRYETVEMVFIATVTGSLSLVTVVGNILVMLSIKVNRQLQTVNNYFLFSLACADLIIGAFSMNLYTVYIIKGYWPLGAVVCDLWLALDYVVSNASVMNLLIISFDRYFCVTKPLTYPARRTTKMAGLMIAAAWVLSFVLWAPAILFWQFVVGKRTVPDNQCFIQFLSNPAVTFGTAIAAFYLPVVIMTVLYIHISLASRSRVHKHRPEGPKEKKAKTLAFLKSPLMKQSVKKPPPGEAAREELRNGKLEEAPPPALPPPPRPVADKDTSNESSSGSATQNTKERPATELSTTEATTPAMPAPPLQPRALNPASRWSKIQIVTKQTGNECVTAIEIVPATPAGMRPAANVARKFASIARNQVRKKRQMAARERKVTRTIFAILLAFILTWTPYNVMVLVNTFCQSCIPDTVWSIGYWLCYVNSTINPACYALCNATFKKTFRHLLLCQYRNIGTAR

[6] = molecular target: T3, Muscarinic acetylcholine receptor M2 (Homo sapiens, UniProt P08172); test: Displacement of [3H]NMS from human cloned muscarinic M2 receptor expressed in CHO cells; assay type: cell-based
T3 sequence (P08172 whole entry): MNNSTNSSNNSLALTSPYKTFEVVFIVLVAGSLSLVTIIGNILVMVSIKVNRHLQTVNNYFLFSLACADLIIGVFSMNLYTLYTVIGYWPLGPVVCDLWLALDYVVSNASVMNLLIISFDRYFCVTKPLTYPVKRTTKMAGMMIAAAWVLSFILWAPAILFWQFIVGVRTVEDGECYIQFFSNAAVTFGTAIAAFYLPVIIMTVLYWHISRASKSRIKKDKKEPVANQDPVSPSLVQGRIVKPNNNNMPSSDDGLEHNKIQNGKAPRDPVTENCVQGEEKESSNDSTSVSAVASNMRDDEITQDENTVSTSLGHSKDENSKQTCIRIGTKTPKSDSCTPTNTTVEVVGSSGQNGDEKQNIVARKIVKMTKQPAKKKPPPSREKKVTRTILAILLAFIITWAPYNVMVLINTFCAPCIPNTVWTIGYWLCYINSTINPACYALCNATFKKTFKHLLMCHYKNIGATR

[7] = Intrinsic activity at muscarinic M1 receptor in rabbit stimulated vas deferens assessed as ratio of agonist activity to activity of McN-A-343; assay type: functional, Oryctolagus cuniculus
[8] = Antagonist activity at muscarinic M1 receptor in rabbit vas deferens up to 10 uM; assay type: functional, Oryctolagus cuniculus

Sequence of Muscarinic acetylcholine receptor M3 (Cavia porcellus) (Q8VH26 1-587): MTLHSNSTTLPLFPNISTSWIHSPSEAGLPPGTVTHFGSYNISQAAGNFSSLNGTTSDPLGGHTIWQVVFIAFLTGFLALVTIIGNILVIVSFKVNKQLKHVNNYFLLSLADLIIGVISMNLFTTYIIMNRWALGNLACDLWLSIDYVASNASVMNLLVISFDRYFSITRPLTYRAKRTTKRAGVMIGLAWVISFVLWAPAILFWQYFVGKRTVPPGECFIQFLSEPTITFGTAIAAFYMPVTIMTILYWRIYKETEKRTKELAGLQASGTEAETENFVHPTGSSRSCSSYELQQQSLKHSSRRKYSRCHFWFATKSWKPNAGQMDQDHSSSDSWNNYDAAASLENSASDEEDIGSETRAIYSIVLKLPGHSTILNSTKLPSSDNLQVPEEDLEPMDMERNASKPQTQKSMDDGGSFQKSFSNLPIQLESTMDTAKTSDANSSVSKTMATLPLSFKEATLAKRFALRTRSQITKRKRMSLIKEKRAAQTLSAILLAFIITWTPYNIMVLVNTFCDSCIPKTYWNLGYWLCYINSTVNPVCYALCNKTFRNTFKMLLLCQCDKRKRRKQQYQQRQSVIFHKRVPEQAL

| Compound | pD2 [1] | Ki [2] [µM] | Intrinsic activity [3] | pD2 [3] | Intrinsic activity [4] | pD2 [4] | Ki [5] [µM] | Ki [6] [µM] | Intrinsic activity [7] | pD2 [7] | pD2 [8] | Intrinsic activity [1] |
| --- | --- | --- | --- | --- | --- | --- | --- | --- | --- | --- | --- | --- |
| CC1COCC(C[N+](C)(C)C)O1 (racemic; form 1) | 7.34 | – | – | – | – | – | – | – | – | – | – | – |
| C[C@@H]1COC[C@@H](C[N+](C)(C)C)O1.[I-] | 4.54 | 87.1 | 0.42 | 5.22 | 0.62 | 5.27 | > 100 | 61.7 | – | – | – | – |
| CC1COCC(C[N+](C)(C)C)O1.[I-] (racemic; form 1) | – | 7.76 | – | – | 1 | – | 11.5 | 2.09 | 1 | 5.65 | – | – |
| C[C@@H]1COC[C@H](C[N+](C)(C)C)O1.[I-] | 6.53 | 44.7 | – | – | 1 | – | 69.2 | 6.92 | – | – | <5 | – |
| C[C@H]1COC[C@H](C[N+](C)(C)C)O1.[I-] | 6.26 | – | 0.77 | 5.79 | 0.9 | 6.18 | 45.7 | 5.25 | – | – | – | – |
| CC1OC(C[N+](C)(C)C)CC1O (racemic) | 7.29 | – | – | – | 1 | 6.72 | – | – | – | – | – | 1 |
| C[C@H]1COC[C@@H](C[N+](C)(C)C)O1.[I-] | 7.65 | 4.57 | 1 | – | – | – | 9.77 | 1.26 | 1 | 6.78 | – | – |
| CC1COCC(C[N+](C)(C)C)O1.[I-] (racemic; form 2) | – | 67.6 | – | – | – | – | 87.1 | 4.9 | – | 5.08 | – | – |
